Counter-ions that a name gives are not always drawn.
How the values were obtained:
HCT116 [1] = assay: efficacy (fitted maximal change in viability relative to DMSO control); higher = less cytotoxic (negative = loss of viability); details: 48 h
HCT116 [2] = assay: AC50 cell viability (CellTiter-Glo); higher = less potent; details: 48 h
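For AC50 cell viability (CellTiter-Glo) in this document: HCT116 colorectal carcinoma cells screened at five concentrations per compound, luminescent viability scaled between DMSO wells and empty wells on each plate, curves fitted per compound.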
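For efficacy (fitted maximal change in viability relative to DMSO control) in this document: Luminescence-based viability readout, five doses per compound, normalized against on-plate DMSO and empty-well controls, followed by dose-response curve fitting for every drug.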

Compound	efficacy (HCT116 [1])	AC50 cell viability (HCT116 [2])
CC[C@@H]1C(=O)N(C)c2cnc(Nc3ccc(C(=O)NC4CCC(N5CCN(CC6CC6)CC5)CC4)cc3OC)nc2N1C(C)C (some centres undefined) [Volasertib]	-89.8%	0.0661 µM
CN(Cc1cnc2nc(N)nc(N)c2n1)c1ccc(C(=O)N[C@@H](CCC(=O)O)C(=O)O)cc1 [Methotrexate]	-84.4%	0.118 µM
C[N]1C=NC=C1C(N)(C2=CC=C(Cl)C=C2)C3=CC\4=C(C=C3)N(C)C(=O)\C=C4C5=CC(=CC=C5)Cl (centres undefined) [Tipifarnib,Freebase]	-120%	20.9 µM
CN1CC/C(CC1)=C3\c4ccccc4CCc2sccc23 [Pizotifen]	-73.5%	23.5 µM
COc1cc(OC)cc(N(CCNC(C)C)c2ccc3ncc(-c4cnn(C)c4)nc3c2)c1 [Erdafitinib]	-123%	13.2 µM
CC(C)(C)C[C@H]1N[C@@H](C(=O)N[C@H]2CC[C@H](O)CC2)[C@H](c2cccc(Cl)c2F)[C@@]12C(=O)Nc1cc(Cl)ccc12	-91.1%	4.17 µM
C[C@H]1C[C@@H](n2c(Nc3ccc(OC(F)(F)F)cc3)nc3cc(CCC(=O)O)ccc32)CC(C)(C)C1	-65%	20.9 µM
O=C(c1ccc(F)c(F)c1Nc1ccc(I)cc1F)N1CC(O)([C@@H]2CCCCN2)C1 [Cobimetinib]	-105%	1.86 µM
CCC(C1CCC(C)C(O1)C(C)C(O)C(C)C(=O)C(CC)C2OC\3(O[C@]4(CC[C@@](C)(O4)C5CC[C@@](O)(CC)C(C)O5)C(O)\C=C3)C(C)CC2C)C([O-])=O (some centres undefined) [Salinomycin]	-98.3%	13.2 µM
C[C@H]1CN(C[C@@H](C)O1)CC(=O)NC2=CC=C3SC4=C(CC3=C2)C=CC=C4\C5=C\C(=O)\C=C(/O5)N6CCOCC6	-51.9%	5.9 µM
CC(C)(C)NC(=O)c1cncn1C1CCN(c2ccc(-c3nnc(C(F)(F)F)o3)cn2)CC1 [WNK-463]	-49.1%	3.72 µM
CCc1ccc2nc(Nc3cc(Cc4ccccc4)nc(N[C@H]4CC[C@H](O)CC4)n3)sc2c1	-65.1%	18.6 µM
COc1ccc(-c2oc3ncnc(N)c3c2-c2ccc(NC(=O)Nc3cc(C(F)(F)F)ccc3F)cc2)cc1	-70.5%	4.68 µM
CC(C)C[C@H](NC(=O)[C@H](CCc1ccccc1)NC(=O)CN1CCOCC1)C(=O)N[C@@H](Cc1ccccc1)C(=O)N[C@@H](CC(C)C)C(=O)[C@@]1(C)CO1 [Carfilzomib]	-93.6%	0.0118 µM
N[S+](=O)([O-])c1ccc(NC(=S)N2CCN(C/C=C/c3ccccc3)CC2)cc1 [LF3]	-42.2%	2.95 µM
Cc1cc2c(C(N)=O)cccc2n1-c1nc2c(c(NCc3ccccc3)n1)COCC2 [CB-5083]	-88.7%	0.833 µM
C[S+](=O)([O-])N1CCC(NC(=O)c2[nH]ncc2NC(=O)c2c(Cl)cccc2Cl)CC1 [NVP-LCQ195]	-64.2%	0.525 µM
Cc1ncc(-c2ccnc(Nc3ccc([S+](C)(=O)[O-])cc3)n2)n1C(C)C [AZD-5438]	-62.2%	0.525 µM
NC(=O)/C(=C/n1cnc(-c2cc(C(F)(F)F)cc(C(F)(F)F)c2)n1)c1cncnc1 [Eltanexor]	-78.9%	0.295 µM

Compound	efficacy (HCT116 [1])	AC50 cell viability (HCT116 [2])
Cc1c(-c2ccc(O)cc2)n(Cc2ccc(OCCN3CCCCCC3)cc2)c2ccc(O)cc12 [Bazedoxifene]	-101%	20.9 µM
O=C(Nc1nc2ccccc2n1CCN1CCOCC1)c1cccc([N+](=O)[O-])c1 [IRAK-1-4 Inhibitor I]	-64.8%	14.8 µM
O=C1CCc2ccc(OCCCCN3CCN(c4cccc(Cl)c4Cl)CC3)cc2N1 [Aripiprazole]	-93.8%	18.6 µM
CN1CCN([C@H]2CC[C@H](n3cc(-c4ccc(Oc5ccccc5)cc4)c4c(N)ncnc43)CC2)CC1	-110%	7.42 µM
C=CC(=O)N1CCC(Oc2cc3c(Nc4ccc(Cl)c(Cl)c4F)ncnc3cc2OC)CC1 [Poziotinib]	-106%	18.6 µM
NC[C@@](O)(c1ccc(Cl)cc1)c1ccc(-c2cn[nH]c2)cc1	-109%	7.42 µM
Cc1ccc(F)c(NC(=O)Nc2ccc(-c3cccc4[nH]nc(N)c34)cc2)c1 [Linifanib]	-90.4%	9.34 µM
Cc1cc2cc(Oc3ccnc(Nc4cccc(C[S+](=O)([O-])NCCN(C)C)c4)n3)ccc2[nH]1 [Sulfatinib]	-101%	11.8 µM
COc1cc2nc(N3CCCN(C)CC3)nc(NC3CCN(Cc4ccccc4)CC3)c2cc1OC	-95.2%	6.61 µM
C/C(=C\c1csc(C)n1)[C@@H]1C[C@@H]2O[C@]2(C)CCC[C@H](C)[C@H](O)[C@@H](C)C(=O)C(C)(C)[C@@H](O)CC(=O)N1 [Ixabepilone]	-58.5%	0.0833 µM
Cc1ccc(NC(=O)NCc2ccc3c(c2)CN(C2CCC(=O)NC2=O)C3=O)cc1Cl (centres undefined) [CC-885]	-42.4%	0.0934 µM
C=CC(=O)N1CC[C@@H](Oc2nc(Nc3ccc(N4CCC(N5CCN(C)CC5)CC4)cc3)c(C(N)=O)nc2CC)C1 [Naquotinib mesylate]	-103%	3.23 µM
CO[C@H]1CC[C@H](N2C(=O)CNc3ncc(-c4ccc(C(C)(C)O)nc4)nc32)CC1 [CC-223]	-85.5%	9.34 µM
N[S+](=O)([O-])c1ccc(Nc2nc(OCC3CCCCC3)c3[nH]cnc3n2)cc1 [NU-6102]	-92.8%	16.6 µM
COc1ccc(COc2ccc(Cc3cnc(N)nc3N)cc2OC)cc1 [GW-2580]	-96.7%	14.8 µM
NC(CSC(c1ccccc1)(c1ccccc1)c1ccccc1)C(=O)O (stereo in doubt) [S-Trityl-L-cysteine]	-53.6%	23.5 µM
CN(C)CCCOc1ccc(-c2ccc3ncc4c(c3c2)n(C2CCOCC2)c(=O)n4C)cn1 [AZD-0156]	-86%	7.23 µM
Cc1cnc(Nc2cccc(CN3CCOCC3)c2)nc1Nc1cccc([S+](=O)([O-])NC(C)(C)C)c1 [TG-89]	-35.5%	1.66 µM
C[C@@H]1CCNC(=O)c2cc3ccc(C(=O)Nc4nc5ccccc5n4CCCN(C)C)cc3n21	-92.3%	11.8 µM

Compound	efficacy (HCT116 [1])	AC50 cell viability (HCT116 [2])
CC(=O)c1ccc2c(c1)c1cc(C(C)=O)ccc1n2CCNC(C)C [CBL-0137]	-69.6%	0.417 µM
Cc1cc(C)c(C/N=C(\O)c2cc(-c3ccc(N4CCN(C)CC4)nc3)cc3c2c(C)cn3C(C)C)c(O)n1 [GSK-503]	-103%	23.5 µM
CCN(CC)CCCC(C)Nc1nc(C)cc(Nc2ccc3nc(C)cc(N)c3c2)n1 (centres undefined)	-54.4%	20.9 µM
N#CCNC(=O)c1ccc(-c2ccnc(Nc3ccc(N4CCOCC4)cc3)n2)cc1 [Momelotinib]	-74.3%	3.72 µM
C[C@@H]1C[C@@H]([C@H](O)CC2CC(=O)NC(=O)C2)C(=O)[C@@H](C)C1 [Cycloheximide]	-68.6%	0.468 µM
C[N]1N=CC=C1NC2=NC=CC(=N2)C\3=C\C(=O)N(\C=C3)[C@H](CO)C4=CC(=C(Cl)C=C4)F [Ravoxertinib]	-116%	14.8 µM
CCN(CC)CCCC(C)Nc1c2ccc(Cl)cc2nc2ccc(OC)cc12.Cl.Cl.O.O (centres undefined) [Quinacrine]	-90.5%	8.33 µM
Cl.Cl.Cl.O[C@@H](COc1cccc2ncccc12)CN1CCN([C@@H]2c3ccccc3[C@@H]3[C@H](c4ccccc42)C3(F)F)CC1 [Zosuquidar trihydrochloride]	-97%	16.6 µM
N=C(NCCCCCCNC(=N)NC(=N)Nc1ccc(Cl)cc1)NC(=N)Nc1ccc(Cl)cc1 [Chlorhexidine]	-93.5%	20.9 µM
CC(C)Oc1ccc(C(=O)N[C@H](CNC(=O)CN(C)C)Cc2ccc(-c3cn4cccc([C@H](C)O)c4n3)cc2)cc1Cl	-127%	4.17 µM
C[C@@H](NCc1cc2ccccc2[nH]1)c1cccc2ccccc12 [Calindol]	-94.8%	13.2 µM
C[C@]1(O)CC(C1)C2=NC(=C3[N]2C=CN=C3N)C4=CC5=C(C=C4)C=CC(=N5)C6=CC=CC=C6 (centres undefined) [Linsitinib]	-46.3%	23.5 µM
O=C/1NC(=O)C(=C1C2=CN=C3C=CC=C[N]23)/C4=C[N]5CCN(CC6=C5C4=CC=C6)C(=O)N7CCOCC7 [GSK3 Inhibitor]	-85.7%	9.34 µM
CN1C(=O)C(=C/2N(C(=O)N(C3CC3)C(=O)C2=C1/NC4=CC=C(I)C=C4F)C5=CC=CC(=C5)NC(C)=O)\C [Trametinib]	-62.3%	0.0468 µM
Cc1cc(-c2nc3cc(F)ccc3s2)ccc1NC(=O)[C@@H](N)CCCCN	-93.6%	7.42 µM
CC(C)C1=C(O)C=C(O)C(=C1)C/2=N/NC(=O)N2C3=CC4=C(C=C3)[N](C)C=C4 [Ganetespib (STA-9090)]	-62.3%	0.0742 µM
Oc1cc(-c2nc(-c3ccccc3)[nH]c2-c2ccncc2)ccc1Cl	-90.3%	4.17 µM
COc1cc(C(=O)NC(=N)Nc2ccc(C)c(NC(=O)c3ccc(-c4ccccc4)cc3)c2)cc(OC)c1OC [MRT-83]	-47.2%	7.42 µM
COC(=O)C[C@](O)(CCCC(C)(C)O)C(=O)O[C@@H]1C(OC)=CC23CCCN2CCc2cc4c(cc2[C@H]13)OCO4 (some centres undefined) [Omacetaxine mepesuccinate]	-68.3%	0.0235 µM

Source: the supplement of paper PMC10290057
